Experimental data published in PubChem BioAssay AID2141 (Sanford-Burnham Center for Chemical Genomics, 2009).
Active and inactive are the calls of the source. No rule for the calls is given here.

Each compound was assayed against E3 ubiquitin-protein ligase SIAH1 (Homo sapiens) (UniProt Q8IUQ4) (assay: inhibitors of Siah-1 ligand interaction – biochemical, TR-FRET, dose response (AID 2141)). Conditions: TR-FRET biochemical assay, Siah-1 binding.
Compound Cc1cc2cc(CNC(=O)c3ccc(S(=O)(=O)N4CCCCC4)cc3)ccc2n1C has an IC50 of 6.45 µM.
In the case of COCCn1nnnc1C(c1cc2ccc(OC)cc2[nH]c1=O)N1CCc2ccccc2C1 (stereo unspecified), the IC50 is reported as 11.8 µM.
O=C(Nc1ccc(S(=O)(=O)N2CCOCC2)cc1)c1ccc(=O)[nH]c1 was tested, and the IC50 was 1.89 µM.
In the case of CC[n+]1c(/C=C/N(C)c2ccccc2)sc2ccc(Cl)cc21, the IC50 is reported as > 200 µM (inactive).
O=C(O)c1cc(O)c2c(c1)C(=O)c1cccc(O)c1C2=O was tested, and the IC50 was > 200 µM (inactive).
Work on O=C(CC1Nc2cccc3cccc(c23)NC1=O)Nc1ccccc1 (stereo unspecified) yielded an IC50 of 6.36 µM.
With CCN(CC)c1ccc(C=N/C(C#N)=C(\N)C#N)cc1 the IC50 was > 200 µM (inactive).
In the case of Cc1ccc(C(=O)COc2ccccc2C(=O)Nc2ccccc2)cc1, the IC50 is reported as > 200 µM (inactive).
CC1CCCCC1NC(=O)CCS(=O)(=O)c1ccc2c(c1)NC(=O)CO2 (stereo unspecified) was tested, and the IC50 was > 200 µM (inactive).
O=C(Nc1ccc(Oc2ccsc2C(=O)O)cc1)c1ccccc1F was tested, and the IC50 was “inactive”.
With CC1(C)Cc2c(sc(/N=C/N3CCCCCC3)c2C#N)C(C)(C)N1 the IC50 was > 200 µM (inactive).
O=C(N/N=C/c1cccc(Br)c1)c1ccc(Br)cc1 was tested, and the IC50 was 2.54 µM.
For COC(=O)C1CC(=O)N(c2ccc(OCc3ccccc3Cl)cc2)C1 (stereo unspecified), the IC50 was > 200 µM (inactive).
For O=C(/C=C/c1ccco1)OCc1nnc(-c2ccccc2)o1, the IC50 was 4.37 µM.
For COCCCn1c(N)c(C(=O)NCc2ccco2)c2nc3ccccc3nc21, the IC50 was 2.31 µM.
With O=S(=O)(Nc1c(S(=O)(=O)c2ccccc2)c2nc3ccccc3nc2n1C1CCCCC1)c1ccccc1 the IC50 was 2.09 µM.
With C[C@]12CCC3C(CC=C4C[C@@H](O)CC[C@@]43C)C1CCC2[C@]1(C)CCC(=O)O1 (stereo partly specified) the IC50 was > 200 µM (inactive).
With Cc1c(Cc2ccccc2)c(=O)oc2c(C)c(OCC(=O)N[C@@H](Cc3ccccc3)C(=O)O)ccc12 the IC50 was 4.38 µM.
For CCC(C)[C@H](NC(=O)N1CCn2c1nc1ccccc12)C(=O)NCCc1ccc(OC)c(OC)c1 (stereo partly specified), the IC50 was > 200 µM (inactive).
C=C(C)Cn1c(N2CCN(CC)CC2)nc2c1c(=O)[nH]c(=O)n2C was tested, and the IC50 was > 200 µM (inactive).
O=C(O)CCCCN1C(=O)/C(=C\c2ccc(OCc3ccccc3)c(OCc3ccccc3)c2)SC1=S gave an IC50 of 4.03 µM.
In the case of NS(=O)(=O)c1ccc(NS(=O)(=O)c2ccc(NC(=O)c3ccc(-c4ccccc4)cc3)cc2)cc1, the IC50 is reported as < 1.56 µM.
For c1ccc(C(c2ccccc2)N2CCN(C(c3ccccn3)c3nnnn3C3CCCC3)CC2)cc1 (stereo unspecified), the IC50 was > 200 µM (inactive).
For Cc1ccccc1-c1nc2c3ccccc3nc(=S)n2[nH]1, the IC50 was > 200 µM (inactive).
CC(=O)Nc1ccc(N=Cc2c(O)c(C(=O)Nc3ccccc3)cc3ccccc23)cc1 was tested, and the IC50 was > 200 µM (inactive).
Work on O=S(=O)(Nc1cc2nc3ccccc3nc2n1Cc1ccccc1)c1ccc(Cl)cc1 yielded an IC50 of 6.05 µM.
In the case of CCC1=Nc2cc(C(=O)O)ccc2Sc2ccccc21, the IC50 is reported as “inactive”.
In the case of COC(=O)c1c(C(=O)OC)c2cccc3cc(-c4ccccc4)c4ccc1c4n32, the IC50 is reported as 14.6 µM.
With N#CC1C=Cc2ccccc2N1C(=O)c1ccccc1 (stereo unspecified) the IC50 was > 200 µM (inactive).
For CCOc1cc(/C=C(\C#N)C(=O)Nc2ccccc2C(=O)O)ccc1OC(=O)c1ccc(C)cc1, the IC50 was > 200 µM (inactive).
COC/C=C/C1=CC2=CC(=O)C(C)(OC(=O)c3ccco3)C(=O)C2=CO1 (stereo unspecified) was tested, and the IC50 was 5.94 µM.
In the case of COc1ccc(CCNC(=O)CCC(=O)N2CCOc3ccc(C)cc32)cc1OC, the IC50 is reported as > 200 µM (inactive).
With CCOC(=O)c1c(C)[nH]c2c1-c1ccccc1C(=O)C2=O the IC50 was > 200 µM (inactive).
For O=c1[nH]c(-c2ccc(F)cc2)nc2c1sc(=S)n2-c1ccccc1, the IC50 was > 200 µM (inactive).
With Nc1ccc(O)c2c1C(=O)c1ccccc1C2=O the IC50 was < 1.56 µM.
For Oc1c(Br)cc(Br)cc1CNc1ccc(F)cc1, the IC50 was “inactive”.
In the case of C[N+]1(CCNC(=O)/C=N/O)CCCCC1, the IC50 is reported as “inactive”.
For O=C1C=C(NCc2ccccc2)c2ccccc2C1=O, the IC50 was 15.6 µM.
Cc1coc2c(C)c3oc(=O)c(CCC(=O)N[C@@H](C)C(=O)N[C@@H](Cc4ccccc4)C(=O)O)c(C)c3cc12 showed an IC50 of 11.4 µM.
O=C(Cn1cnc2scc(-c3ccccc3)c2c1=O)NCc1ccco1 was tested, and the IC50 was 7.29 µM.
With CN(C)CCOC(=O)CCc1ccccc1 the IC50 was > 200 µM (inactive).
In the case of CCN(CC)CCOC(=O)c1ccc(N/C=C(/C#N)c2nc(-c3ccc(OC)c(OC)c3)cs2)cc1, the IC50 is reported as < 1.56 µM.
For CCc1nnc(NS(=O)(=O)c2ccc(NC(=S)NC(=O)/C=C/c3ccc(C(C)C)cc3)cc2)s1, the IC50 was 8.87 µM.
COc1cccc2cc(C(=O)N3CCc4ccccc43)c(=O)oc12 was tested, and the IC50 was > 200 µM (inactive).
With CC1CCN(C(=O)C2CCC(C)(C(=O)O)C2(C)C)CC1 (stereo unspecified) the IC50 was > 200 µM (inactive).
CCCCn1c(NS(=O)(=O)c2ccccc2)c(S(=O)(=O)c2ccc(C)cc2)c2nc3ccccc3nc21 was tested, and the IC50 was 1.6 µM.
For Nc1ccc(S(=O)(=O)Nc2ccc(S(N)(=O)=O)cc2)cc1, the IC50 was > 200 µM (inactive).
Nc1c(C(=O)NCc2ccco2)c2nc3ccccc3nc2n1Cc1ccccc1 was tested, and the IC50 was < 1.56 µM.
In the case of N#C/C(=C\c1c(F)cccc1Cl)C(=O)NC1CC1, the IC50 is reported as > 200 µM (inactive).
Compound Cc1ccc(CNc2ccc(O)cc2)cc1 has an IC50 of 4.51 µM.
With CCOC(=O)/C(C#N)=c1/s/c(=C2\C=Cc3ccccc3N2CC)c(=O)n1CC the IC50 was > 200 µM (inactive).
CC1=C(C#N)c2nc(N)c(C#N)c(C)c2/C1=C\c1ccc(-c2ccccc2C(=O)O)o1 was tested, and the IC50 was > 200 µM (inactive).
For CSc1ccccc1C(=O)NC(C)c1ccc(-n2ccnc2)cc1 (stereo unspecified), the IC50 was “inactive”.
With CN(C)c1cccc2c(C=C(C#N)C#N)ccc(N(C)C)c12 the IC50 was “inactive”.
With O=C(Nc1cc([N+](=O)[O-])ccc1N1CCOCC1)c1cccs1 the IC50 was > 200 µM (inactive).
In the case of COCCCNc1c2c3c(cccc3[nH]c1=O)C(=O)c1ccccc1-2, the IC50 is reported as > 200 µM (inactive).
With C=CCn1c(NS(=O)(=O)c2ccccc2)c(S(=O)(=O)c2ccc(C)cc2)c2nc3ccccc3nc21 the IC50 was < 1.56 µM.
In the case of CC(NC(=O)Nc1ccc(O)cc1)(C(F)(F)F)C(F)(F)F, the IC50 is reported as “inactive”.
O=C1CCCC(O)=C1N=Nc1ccc(C(=O)O)cc1 was tested, and the IC50 was < 1.56 µM.
For CC12CCC(C(=O)NCc3ccc(Cl)cc3)(OC1=O)C2(C)C (stereo unspecified), the IC50 was > 200 µM (inactive).
In the case of CN1C(=O)NC(c2ccccc2[N+](=O)[O-])C2=C1CCCC2=O (stereo unspecified), the IC50 is reported as > 200 µM (inactive).
For O=C(O)c1ccc(/C=N/NC(=O)c2ccc(CN3c4cccc5cccc(c45)S3(=O)=O)cc2)cc1, the IC50 was 18.3 µM.
O=C(Nc1ccc(Br)cc1)c1ccc(N2C(=O)C3CC=CCC3C2=O)cc1 (stereo unspecified) showed an IC50 of 4.27 µM.
CCCCNc1c2c3c(cccc3n(C)c1=O)C(=O)c1ccccc1-2 was tested, and the IC50 was > 200 µM (inactive).
Cc1c(C(=O)O)sc2nc(CSc3ncc(C(F)(F)F)cc3Cl)[nH]c(=O)c12 showed an IC50 of 7.65 µM.
In the case of O=C(Nc1ccc(Cl)cc1)c1ccc(S(=O)(=O)N2CCOCC2)cc1, the IC50 is reported as > 200 µM (inactive).
Work on CCCCn1c(NC(=O)c2ccc(Br)o2)c(C(=O)OCC)c2nc3ccccc3nc21 yielded an IC50 of 2.04 µM.
For COc1ccc(CNC(=S)Nc2cc(OC)ccc2OC)cc1, the IC50 was > 200 µM (inactive).
For Cc1ccc(C(=O)NC2CC3CCCC(C2)N3C(=O)NC2CCCCC2)cc1 (stereo unspecified), the IC50 was > 200 µM (inactive).
Compound O=C(Nc1nc(-c2cc3ccccc3oc2=O)cs1)c1ccco1 has an IC50 of 2.39 µM.
Work on CCOc1ccccc1CNc1ccc(O)cc1 yielded an IC50 of 5.11 µM.
Work on O=C(O)CCCNc1cc(N2CCN(C(=O)c3ccco3)CC2)c2noc3c2c1C(=O)c1ccccc1-3 yielded an IC50 of 5.41 µM.
COc1cc(/C=C(\C#N)c2nc3ccccc3[nH]2)ccc1OC(=O)c1ccco1 showed an IC50 of 6.22 µM.
CCCCn1c(NS(=O)(=O)c2ccccc2)c(C(=O)OCC)c2nc3ccccc3nc21 gave an IC50 of 2.16 µM.
In the case of CCCCn1c(NS(=O)(=O)c2ccc(C)cc2)c(S(=O)(=O)c2ccccc2)c2nc3ccccc3nc21, the IC50 is reported as 3.41 µM.
C=CCc1cccc2cc(C(=O)Nc3ccc(CC(=O)O)cc3)c(=O)oc12 showed an IC50 of 9.1 µM.
Compound N#Cc1c(NC(=O)c2ccc(Br)o2)n(-c2ccccc2)c2nc3ccccc3nc12 has an IC50 of 3.73 µM.
For Cc1ccc2c(c1)N(CC(=O)NCCc1ccc(Cl)cc1)C(=O)c1cccnc1O2, the IC50 was > 200 µM (inactive).
With Oc1ccc(N=Cc2sc3ccccc3c2Cl)cc1 the IC50 was 14.9 µM.
NS(=O)(=O)c1ccc(NC(=O)c2cccc(N3C(=O)c4ccccc4C3=O)c2)cc1 showed an IC50 of 10.6 µM.
In the case of CS(=O)(=O)N1CCN(c2ccc([N+](=O)[O-])c(SCc3ccco3)c2)CC1, the IC50 is reported as > 200 µM (inactive).
O=c1[nH]n(-c2ccc([N+](=O)[O-])cc2)c(=O)c2ccccc12 gave an IC50 of 11.2 µM.
CCN(CC)c1ccc(/C=c2\sc3nnc(-c4ccccc4Cl)n3c2=O)cc1 was tested, and the IC50 was > 200 µM (inactive).
With Cc1cc(C)nc(N=Nc2c(O)n(Cc3ccc(Cl)cc3)c3ccccc23)n1 the IC50 was > 200 µM (inactive).
CCCCNc1nnc(Cc2ccc(Cl)cc2)c(=O)[nH]1 was tested, and the IC50 was “inactive”.
With CC1CCN(S(=O)(=O)c2ccc3c(c2)c(=O)c(C(=O)NCc2ccccc2Cl)cn3C)CC1 the IC50 was > 200 µM (inactive).
COc1cc(NS(=O)(=O)c2ccc(NC(=S)NC(=O)/C=C/c3ccc(F)cc3)cc2)ncn1 was tested, and the IC50 was > 200 µM (inactive).
In the case of COc1ccc(-c2cnnn2-c2ccc(N)cc2)cc1OC, the IC50 is reported as > 200 µM (inactive).
CCC(C)N1C(=O)/C(=C/c2c(NCCCOC(C)C)nc3c(C)cccn3c2=O)SC1=S (stereo unspecified) was tested, and the IC50 was > 200 µM (inactive).
In the case of CC1CCN(S(=O)(=O)c2nnc(NC(=O)c3cccc(Cl)c3)s2)CC1, the IC50 is reported as > 200 µM (inactive).
COCCOC(=O)c1sc(=S)n(CCOC)c1N showed an IC50 of 10.6 µM.
Compound CC1=CC(C)(C)N2C(=O)C(=Nc3ccc(O)cc3)c3cccc1c32 has an IC50 of 5.61 µM.
For O=C(O)CCN1C(=O)/C(=C/c2cn(-c3ccccc3)nc2-c2cccs2)SC1=S, the IC50 was “inactive”.
CC(C)(C)c1ccc(C(CC(=O)O)NC(=O)Cc2ccc(F)cc2)cc1 (stereo unspecified) showed an IC50 of 4.55 µM.
In the case of COC(=O)c1ccc2c(c1)C(C)(C)C(/C=C/c1ccccc1O)=[N+]2C, the IC50 is reported as > 200 µM (inactive).
Cc1cc(Cl)ccc1NC(=O)CN1CCC(C(O)(c2ccccc2)c2ccccc2)CC1 was tested, and the IC50 was > 200 µM (inactive).
With O=C(NCc1ccc(Cl)cc1)c1cc(-c2cccs2)on1 the IC50 was 6.3 µM.
O=C(Nc1ccccc1N1CCCCC1)c1ccc(-c2cccc(Cl)c2)o1 was tested, and the IC50 was > 200 µM (inactive).
Work on COc1cc(CNc2ccc(O)cc2)cc(Br)c1OCc1ccccc1F yielded an IC50 of 4.66 µM.
For COc1ccc(N=C2NC(=O)S/C2=C\c2ccc(N(C)C)cc2)cc1, the IC50 was > 200 µM (inactive).
Oc1ccc(N=Cc2ccc(OCc3ccccc3)cc2)cc1 was tested, and the IC50 was 3.74 µM.
